As usually defined, the EC50 is the midpoint of the concentration-response curve. One may read the Emax as the maximal effect, on the per cent scale that the assay sets. As a reminder, the Ki is a measure of affinity in units of concentration, obtained from inhibition or displacement.

The target in assay [1] is T1, μ-opioid receptor (Homo sapiens (Human), UniProt P35372). In words: μ-opioid receptor [35S]GTPγS functional assay, HEK-293 or CHO cells. Format: biochemical. Particulars: HEK-293 or CHO cells; for EC50: read-out: GTPγS μ EC50; for Emax: relative to DAMGO. The gist of the method: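 Membranes from recombinant human μ-opioid receptor cells (HEK-293, CHO or U-2 OS) at 0.026 mg/mL with saponin, […] and 0.20 nM [35S]GTPγS in HEPES buffer pH 7.4, incubated 30 min at about 25 °C; bound radioactivity by filtration. EC50 from sigmoidal fit; Emax relative to DAMGO.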

The target in assay [2] is T2, κ-opioid receptor (Homo sapiens (Human), UniProt P41145). In words: κ-opioid receptor [35S]GTPγS functional assay, HEK-293 or CHO cells. Format: biochemical. The method, then:
(§1) Functional [^35S]GTPγS binding assays were conducted as follows. K opioid receptor membrane solution was prepared by sequentially adding final concentrations of 0.026 μg/μl κ membrane protein (in-house), 10 μg/mL saponin, 3 μM GDP and 0.20 nM [^35S]GTPγS to binding buffer (100 mM NaCl, 10 mM MgCl2, 20 mM HEPES, pH 7.4) on ice. The prepared membrane solution (190 μl/well) was transferred to 96-shallow well polypropylene plates containing 10 μl of 20× concentrated stock solutions of agonist prepared in DMSO. Plates were incubated for 30 min at a temperature of about 25° C. with shaking. Reactions were terminated by rapid filtration onto 96-well Unifilter GF/B filter plates (Perkin Elmer, Shelton, Conn.) using a 96-well tissue harvester (Packard) and followed by three filtration washes with 200 μl ice-cold binding buffer (10 mM NaH2PO4, 10 mM Na2HPO4, pH 7.4). Filter plates were subsequently dried at 50° C. for 2-3 hours. Fifty μl/well scintillation cocktail (Perkin Elmer, Shelton, Conn.) was added and plates were counted in a Packard Top-Count for 1 min/well.
κ GTP EC50 is the concentration of a compound providing 50% of the maximal response for the compound at a κ receptor. […]
In TABLE 4, activity response of certain Compounds of the Invention to the μ- and κ-opioid receptors was determined as described above for functional assays using HEK-293 or CHO cells.

For assay [3], the target named is T2, κ-opioid receptor. In words: κ-opioid receptor radioligand dose-displacement binding assay ([3H]-U69,593). Particulars: binding affinity, HEK-293 or CHO cells. The method, then:
Membranes from recombinant HEK-293 cells, CHO or U-2 OS cells expressing the recombinant human κ opioid receptor (κ) were prepared by lysing cells in ice cold hypotonic buffer (2.5 mM MgCl2, 50 mM HEPES, pH 7.4) (10 mL/10 cm dish) followed by homogenization with a tissue grinder/Teflon pestle. Membranes from a cell line naturally expressing kappa opioid receptors can also be used. Membranes were collected by centrifugation at 30,000×g for 15 min at 4° C. and pellets were resuspended in hypotonic buffer to a final concentration of 1-3 mg/mL. Protein concentrations were determined using the BioRad protein assay reagent with bovine serum albumen as standard. Aliquots of κ receptor membranes were stored at −80° C.
Radioligand dose displacement assays used 0.4 nM [^3H]-U69,593 (GE Healthcare, Piscataway, N.J.; 40 Ci/mmole) with 15 μg membrane protein (recombinant K opioid receptor expressed in HEK 293 cells; in-house prep) in a final volume of 200 μl binding buffer (5% DMSO, 50 mM Trizma base, pH 7.4). Non-specific binding was determined in the presence of 10 μM unlabeled naloxone or U69,593. All reactions were performed in 96-well polypropylene plates for 1 hr at a temperature of about 25° C. Binding reactions were terminated by rapid filtration onto 96-well Unifilter GF/C filter plates (Perkin Elmer, Shelton, Conn.) presoaked in 0.5% polyethylenimine (Sigma). Harvesting was performed using a 96-well tissue harvester (Perkin Elmer, Shelton, Conn.) followed by five filtration washes with 200 μl ice-cold binding buffer. Filter plates were subsequently dried at 50° C. for 1-2 hours. Fifty μl/well scintillation cocktail (Perkin Elmer, Shelton, Conn.) was added and plates were counted in a Packard Top-Count for 1 min/well.
In TABLE 3, binding affinity of certain Compounds of the Invention to the ORL-1, μ-, and κ-opioid receptors was determined as described above in HEK-293 or CHO cells.

In assay [4] the target is T2, κ-opioid receptor. In words: κ-opioid receptor [35S]GTPγS functional assay, U-2 OS cells. Format: biochemical. The method, then: as §1
κ GTP EC50 is the concentration of a compound providing 50% of the maximal response for the compound at a κ receptor.
κ GTP Emax (%) is the maximal effect elicited by a compound relative to the effect elicited by U69,593.
(§2) In TABLE 5, activity response of certain Compounds of the Invention to the μ- and κ-opioid receptors was determined as described above for functional assays using U-2 OS cells.
For orientation: Binding of GTPγS marks nucleotide exchange on a G protein.

In assay [5] the target is T1, μ-opioid receptor. In words: μ-opioid receptor [35S]GTPγS functional assay, U-2 OS cells. The format is biochemical. The method, then: [^35S]GTPγS functional assays were conducted using freshly thawed μ-receptor membranes prepared in-house from a cell line expressing recombinant opioid receptor in a HEK-293, CHO or U-2 OS cell background, or purchased from a commercial source (Perkin Elmer, Shelton, Conn.; or DiscovRx, Fremont, Calif.). Assay reactions were prepared by sequentially adding the following reagents to binding buffer (100 mM NaCl, 10 mM MgCl2, 20 mM HEPES, pH 7.4) on ice (final concentrations indicated): membrane protein (0.026 mg/mL), saponin ([…]), GDP ([…]) and [^35S]GTPγS (0.20 nM; Perkin Elmer, Shelton, Conn.). The prepared membrane solution (190 μl/well) was transferred to 96-shallow well polypropylene plates containing 10 μl of 20× concentrated stock solutions of the agonist [D-Ala^2, N-methyl-Phe^4 Gly-ol^5]-enkephalin (DAMGO) prepared in dimethyl sulfoxide (DMSO). Plates were incubated for 30 min at about 25° C. with shaking. Reactions were terminated by rapid filtration onto 96-well Unifilter GF/B filter plates (Perkin Elmer, Shelton, Conn.) using a 96-well tissue harvester (Perkin Elmer, Shelton, Conn.) followed by three filtration washes with 200 μl of ice-cold wash buffer (10 mM NaH2PO4, 10 mM Na2HPO4, pH 7.4). Filter plates were subsequently dried at 50° C. for 2-3 hr. BetaScint scintillation cocktail (Perkin Elmer, Shelton, Conn.) was added (50 μl/well) and plates were counted using a Packard Top-Count for 1 min/well. Data were analyzed using the sigmoidal dose-response curve fitting functions in GraphPad PRISM v. 3.0, or an in-house function for non-linear, sigmoidal dose-response curve-fitting.
μ GTP EC50 is the concentration of a compound providing 50% of the maximal response for the compound at a μ-opioid receptor.
μ GTP Emax (%) is the maximal effect elicited by a compound relative to the effect elicited by DAMGO, a standard p agonist. Generally, the μ GTP Emax (%) value measures the efficacy of a compound to treat or prevent pain or other Conditions.
as §2

Some results are limits rather than exact numbers.

With `CN1CC[C@@]2(C)c3cc(O)ccc3C[C@@H]1[C@@H]2NCCc1ccc(S(C)(=O)=O)cc1` [Compound 10, (2R,6S,11R)-3,6-dimethyl-11-((4-(methylsulfonyl)phenethyl)amino)-1,2,3,4,5,6-hexahydro-2,6-methanobenzo[d]azocin-8-ol], the EC50 in assay [1] was 0.225 ± 0.0608 µM; in assay [2] (bound given in uM), over 20 µM. Moreover, the figures for the Emax in assay [1] and in assay [2] (relative to U69,593) were 38.5 ± 2.33% and 1%, respectively. Besides, in assay [3], the Ki is 0.301 ± 0.00979 µM.

For the molecule `CN1CC[C@@]2(C)c3cc(O)ccc3C[C@@H]1[C@@H]2N(C)C(=O)CC(=O)Nc1ccc(F)cc1F` [Compound 26, N^1-(2,4-difluorophenyl)-N^3—((2R,6S,11R)-8-hydroxy-3,6-dimethyl-1,2,3,4,5,6-hexahydro-2,6-methanobenzo[d]azocin-11-yl)-N^3-methylmalonamide], the EC50 turned out to be 0.00397 ± 0.00025 µM in assay [1], 0.0543 ± 0.00945 µM in assay [4] and 0.00033 ± 2.5e-05 µM in assay [5]. Further, the Emax was 76.7 ± 2.73% in assay [1], 81.7 ± 10.7% in assay [4] (relative to U69,593) and 107 ± 3.06% in assay [5] (relative to DAMGO).

Regarding `CC(C)S(=O)(=O)N1CCC(CN(C)[C@H]2[C@H]3Cc4ccc(O)cc4[C@]2(C)CCN3C)CC1` [Compound 55, (2R,6S,11R)-11-(((1-(isopropylsulfonyl)piperidin-4-yl)methyl)(methyl)amino)-3,6-dimethyl-1,2,3,4,5,6-hexahydro-2,6-methanobenzo[d]azocin-8-ol], in assay [1], the EC50 is 0.00328 ± 0.00039 µM and the Emax worked out at 52 ± 4.85%. The molecule further had a Ki in assay [3] (bound given in uM) of over 20 µM.

Turning to `CN1CC[C@@]2(C)c3cc(O)ccc3C[C@@H]1[C@@H]2N(C)CC1CCN(CC(C)(C)O)CC1` [Compound 97, (2R,6S,11R)-11-(((1-(2-hydroxy-2-methylpropyl)piperidin-4-yl)methyl)(methyl)amino)-3,6-dimethyl-1,2,3,4,5,6-hexahydro-2,6-methanobenzo[d]azocin-8-ol], in assay [1], the EC50 stood at 0.0226 ± 0.00234 µM and the Emax was 47 ± 1.53%. Also, the inhibitory constant (Ki) in assay [3] is 0.00212 ± 0.00055 µM.

(Values after patent US9975854B2, “Benzomorphan analogs and use thereof” (Purdue Pharma L.P., priority 2014, dated 2018).)
